For two compounds, IC50 results are on record in US7317107B2, “Imidazole 4-carboxamide compounds with adenosine deaminase inhibiting activity” (Astellas Pharma Inc., priority 2002, dated 2008).

This experiment concerns the target T1, Human ADA (Homo sapiens, UniProt P00813).
T1 construct: made in house
T1 sequence (P00813 1-363): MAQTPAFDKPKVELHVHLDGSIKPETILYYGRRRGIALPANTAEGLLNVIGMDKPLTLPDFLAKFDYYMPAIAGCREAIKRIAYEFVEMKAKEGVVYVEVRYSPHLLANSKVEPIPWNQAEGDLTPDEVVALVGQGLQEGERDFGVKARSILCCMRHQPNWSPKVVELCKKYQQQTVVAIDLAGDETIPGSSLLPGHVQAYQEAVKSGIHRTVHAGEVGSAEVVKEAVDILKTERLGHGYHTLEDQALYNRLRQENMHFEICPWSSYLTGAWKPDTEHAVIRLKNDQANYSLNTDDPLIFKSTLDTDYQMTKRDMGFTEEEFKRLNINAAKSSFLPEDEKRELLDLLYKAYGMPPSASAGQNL
Nature of the experiment: Adenosine Deaminase (ADA) Enzyme Assay. The note with it: 0.16 μg/ml ADA, 0.1 mM adenosine, 10 mM phosphate buffer saline pH 7.4, room temperature, decrease in A265 for 3 minutes. The experiment is classed as biochemical. The method, then:
Adenosine Deaminase (ADA) Enzyme Assay
• 1-{(3R,4S)-4-Hydroxy-1-[2-(4-ethoxyphenyl)-4-benzoxazolyl]-3-pentyl}-imidazole-4-carboxamide hydrochloride (E0023) • 1-{(3R,4S)-4-Hydroxy-1-[2-(2-thienyl)-7-benzoxazolyl]-3-pentyl}-imidazole-4-carboxamide hydrochloride (E0028) Test Method:
The reaction velocity (V) is measured by a change in absorbance at 265 nm (A265) resulting from the deamination of adenosine. Human ADA was expressed and purified from ADA-deficient bacterial strain. Reaction mixtures of a total volume of 200 μl contained 0.16 μg/ml of ADA and 0.1 mM of adenosine and test compound in 10 mM phosphate buffer saline (pH 7.4). The reaction was started by addition of ADA to a mixture of adenosine and test compound. The reaction was followed at room temperature by recording decrease in A265 for 3 minutes in SPECTRAmax 250 (Molecular Devices, USA) to automatically calculate Vmax. Inhibitory potency of test compound was expressed as IC50 value, the drug concentration required to produce 50% inhibition of Vmax in comparison to vehicle treatment.

Where a name gives a salt, the structure may show the parent alone.

In the case of `CCOc1ccc(-c2nc3c(CC[C@H]([C@H](C)O)n4cnc(C(N)=O)c4)cccc3o2)cc1` [Compound E0023, 1-{(3R,4S)-4-Hydroxy-1-[2-(4-ethoxyphenyl)-4-benzoxazolyl]-3-pentyl}imidazole-4-carboxamide hydrochloride], the IC50 (usually the concentration that inhibits the measured activity by half) is below 20 nM.

`C[C@H](O)[C@@H](CCc1cccc2nc(-c3cccs3)oc12)n1cnc(C(N)=O)c1` [Compound E0028, 1-{(3R,4S)-4-Hydroxy-1-[2-(2-thienyl)-7-benzoxazolyl]-3-pentyl}imidazole-4-carboxamide hydrochloride] gave an IC50 below 20 nM.
